Measured values from PubChem BioAssay AID248 (DTP/NCI, 2004).
Values joined by “and” are separate entries in the source; they are usually repeats but may differ in a detail not shown here. Equal entries are not always repeated. Toxic doses and inconclusive results are not listed.

System: L1210 leukemia ip in BDF1 mice, survival T/C
Test: NCI In Vivo Anticancer Drug Screen. Data for tumor model L1210 Leukemia (intraperitoneal) in B6D2F1 (BDF1) mice
Conditions: endpoint: mean survival time, higher = longer survival
Outline: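 Value reflects the ratio of survival in compound-treated mice to survival in vehicle-treated controls, with both groups carrying the same transplanted tumor.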

[1] = dose: 100.0 mg/kg/injection, schedule: Q01DX001 (ip), vehicle: saline
[2] = dose: 200.0 mg/kg/injection, schedule: Q01DX001 (ip), vehicle: saline
[3] = dose: 400.0 mg/kg/injection, schedule: Q01DX001 (ip), vehicle: saline
[4] = dose: 100.0 mg/kg/injection, schedule: Q01DX009 (ip), vehicle: Klucel (hydroxypropylcellulose) (HPC)
[5] = dose: 200.0 mg/kg/injection, schedule: Q01DX009 (ip), vehicle: Klucel (hydroxypropylcellulose) (HPC)
[6] = dose: 400.0 mg/kg/injection, schedule: Q01DX009 (ip), vehicle: Klucel (hydroxypropylcellulose) (HPC)
[7] = dose: 25.0 mg/kg/injection, schedule: Q04DX003 (ip), vehicle: saline
[8] = dose: 50.0 mg/kg/injection, schedule: Q01DX009 (ip), vehicle: saline
[9] = dose: 200.0 mg/kg/injection, schedule: Q04DX003 (ip), vehicle: saline
[10] = dose: 400.0 mg/kg/injection, schedule: Q01DX009 (ip), vehicle: saline
[11] = dose: 100.0 mg/kg/injection, schedule: Q01DX009 (ip), vehicle: saline
[12] = dose: 100.0 mg/kg/injection, schedule: Q04DX003 (ip), vehicle: saline
[13] = dose: 200.0 mg/kg/injection, schedule: Q01DX009 (ip), vehicle: saline

CN(C)CCOC(c1ccccc1)c1ccccc1 (tested in a mixture with another compound)
T/C [1]: 109 % of control | T/C [2]: 101 % of control | T/C [3]: 95 % of control

CN(Cc1cc(Cl)cc(Cl)c1O)C1CC2CCC1(C)C2(C)C (centres undefined)
T/C (dose: 25.0 mg/kg/injection, schedule: Q04DX002 (ip), vehicle: Klucel (hydroxypropylcellulose) (HPC)): 96 % of control | T/C (dose: 50.0 mg/kg/injection, schedule: Q04DX002 (ip), vehicle: Klucel (hydroxypropylcellulose) (HPC)): 103 % of control | T/C [4]: 90 % of control | T/C (dose: 100.0 mg/kg/injection, schedule: Q04DX002 (ip), vehicle: Klucel (hydroxypropylcellulose) (HPC)): 92 % of control | T/C [5]: 88 % of control | T/C [6]: 103 % of control

O=C(NC1CCCCC1)NC1CCCCC1
T/C (dose: 100.0 mg/kg/injection, schedule: Q01DX009 (ip), vehicle: saline with Tween-80): 95 % of control | T/C (dose: 200.0 mg/kg/injection, schedule: Q01DX009 (ip), vehicle: saline with Tween-80): 88 % of control | T/C (dose: 400.0 mg/kg/injection, schedule: Q01DX009 (ip), vehicle: saline with Tween-80): 87 % of control

O=NN(CCCl)C(=O)NC1C=CCCC1 (centres undefined)
T/C (dose: 9.0 mg/kg/injection, schedule: Q01DX001 (ip), vehicle: other): 117 % of control | T/C (dose: 20.0 mg/kg/injection, schedule: Q01DX001 (ip), vehicle: other): 158 % of control | T/C (dose: 37.0 mg/kg/injection, schedule: Q01DX001 (ip), vehicle: other): 224 % of control | T/C (dose: 50.0 mg/kg/injection, schedule: Q01DX001 (ip), vehicle: other): 175 % of control | T/C (dose: 75.0 mg/kg/injection, schedule: Q01DX001 (ip), vehicle: other): 173 % of control | T/C (dose: 112.0 mg/kg/injection, schedule: Q01DX001 (ip), vehicle: other): 166 % of control

CCCC(=O)OCC1OC(n2cnc3c(=S)nc[nH]c32)C(OC(=O)CCC)C1OC(=O)CCC (centres undefined)
T/C (dose: 3.12 mg/kg/injection, schedule: Q04DX003 (ip), vehicle: saline): 97 % of control | T/C (dose: 6.25 mg/kg/injection, schedule: Q01DX009 (ip), vehicle: saline): 112 % of control | T/C (dose: 6.25 mg/kg/injection, schedule: Q01DX Z (ip), vehicle: other): 117 % of control | T/C (dose: 6.25 mg/kg/injection, schedule: Q04DX003 (ip), vehicle: saline): 113 % of control | T/C (dose: 8.36 mg/kg/injection, schedule: Q01DX009 (ip), vehicle: saline with Tween-80): 122 % of control | T/C (dose: 8.36 mg/kg/injection, schedule: Q04DX003 (ip), vehicle: saline with Tween-80): 107 % of control | T/C (dose: 12.5 mg/kg/injection, schedule: Q01DX009 (ip), vehicle: saline): 122 % of control | T/C (dose: 12.5 mg/kg/injection, schedule: Q04DX003 (ip), vehicle: saline with Tween-80): 114 % of control | T/C (dose: 12.5 mg/kg/injection, schedule: Q04DX003 (ip), vehicle: saline): 118 % of control | T/C (dose: 25.0 mg/kg/injection, schedule: Q01DX Z (ip), vehicle: other): 153 % of control | T/C [7]: 121 % of control | T/C (dose: 26.0 mg/kg/injection, schedule: Q01DX001 (ip), vehicle: saline): 121 % of control | T/C (dose: 40.0 mg/kg/injection, schedule: Q01DX001 (ip), vehicle: saline): 121 % of control | T/C [8]: 164 % of control | T/C (dose: 50.0 mg/kg/injection, schedule: Q01DX Z (ip), vehicle: other): 89 % of control | T/C [9]: 123 % of control | T/C (dose: 300.0 mg/kg/injection, schedule: Q01DX001 (ip), vehicle: saline): 151 % of control | T/C [3]: 121 % of control | T/C [10]: 100 % of control | T/C (dose: 400.0 mg/kg/injection, schedule: Q04DX003 (ip), vehicle: saline): 105 % of control

O=c1[nH]c2nc(Cl)c(Cl)nc2[nH]1
T/C [8]: 98 % of control | T/C [11]: 95 % of control and 96 % of control | T/C [12]: 94 % of control | T/C [13]: 108 % of control and 116 % of control | T/C [9]: 105 % of control | T/C (dose: 300.0 mg/kg/injection, schedule: Q01DX009 (ip), vehicle: saline): 92 % of control | T/C [10]: 86 % of control

COc1ccc(C(O)c2nnc(-c3ccccc3)nn2)cc1 (centres undefined)
T/C (dose: 100.0 mg/kg/injection, schedule: Q01DX001 (ip), vehicle: gum acacia): 90 % of control | T/C (dose: 200.0 mg/kg/injection, schedule: Q01DX001 (ip), vehicle: gum acacia): 120 % of control | T/C (dose: 400.0 mg/kg/injection, schedule: Q01DX001 (ip), vehicle: gum acacia): 107 % of control

N#CC1(Nc2ccc3c4c(cccc24)CC3)CCCCC1
T/C (dose: 100.0 mg/kg/injection, schedule: Q04DX002 (ip), vehicle: saline with Tween-80): 95 % of control | T/C (dose: 200.0 mg/kg/injection, schedule: Q04DX002 (ip), vehicle: saline with Tween-80): 109 % of control | T/C (dose: 400.0 mg/kg/injection, schedule: Q04DX002 (ip), vehicle: saline with Tween-80): 95 % of control

C1=CC2CCC(C1)C21OCCO1 (centres undefined)
T/C [11]: 92 % of control | T/C (dose: 100.0 mg/kg/injection, schedule: Q04DX003 (ip), vehicle: alcohol): 108 % of control | T/C [13]: 96 % of control | T/C (dose: 200.0 mg/kg/injection, schedule: Q04DX003 (ip), vehicle: alcohol): 108 % of control | T/C [10]: 94 % of control | T/C (dose: 400.0 mg/kg/injection, schedule: Q04DX003 (ip), vehicle: alcohol): 97 % of control

Nc1c(Cl)cc(Cl)c2ccc([N+](=O)[O-])cc12
T/C [4]: 93 % of control | T/C (dose: 100.0 mg/kg/injection, schedule: Q04DX003 (ip), vehicle: Klucel (hydroxypropylcellulose) (HPC)): 103 % of control | T/C [5]: 107 % of control | T/C (dose: 200.0 mg/kg/injection, schedule: Q04DX003 (ip), vehicle: Klucel (hydroxypropylcellulose) (HPC)): 93 % of control | T/C [6]: 95 % of control | T/C (dose: 400.0 mg/kg/injection, schedule: Q04DX003 (ip), vehicle: Klucel (hydroxypropylcellulose) (HPC)): 93 % of control

Clc1ccccc1-c1ccc2c(Cl)ccnc2c1
T/C [1]: 95 % of control | T/C [2]: 95 % of control | T/C [3]: 91 % of control

Cc1ccc(CCOC(=O)c2cc([N+](=O)[O-])cc([N+](=O)[O-])c2)cc1
T/C (dose: 75.0 mg/kg/injection, schedule: Q01DX001 (ip), vehicle: carboxymethylcellulose (CMC)): 94 % of control | T/C (dose: 150.0 mg/kg/injection, schedule: Q01DX001 (ip), vehicle: carboxymethylcellulose (CMC)): 94 % of control | T/C (dose: 300.0 mg/kg/injection, schedule: Q01DX001 (ip), vehicle: carboxymethylcellulose (CMC)): 90 % of control

CCN(CC)CCCC(C)Nc1cc(N)nc2nccnc12 (centres undefined)
T/C [7]: 102 % of control | T/C (dose: 50.0 mg/kg/injection, schedule: Q04DX003 (ip), vehicle: saline): 111 % of control | T/C [12]: 107 % of control

CC(=O)Nc1ccc2c(c1)[nH]c(=O)c1ccccc12
T/C (dose: 100.0 mg/kg/injection, schedule: Q01DX001 (ip), vehicle: carboxymethylcellulose (CMC)): 96 % of control | T/C (dose: 200.0 mg/kg/injection, schedule: Q01DX001 (ip), vehicle: carboxymethylcellulose (CMC)): 93 % of control | T/C (dose: 400.0 mg/kg/injection, schedule: Q01DX001 (ip), vehicle: carboxymethylcellulose (CMC)): 96 % of control

CNC(=O)Oc1cccc2c1C(=O)OC2=O
T/C (dose: 100.0 mg/kg/injection, schedule: Q01DX001 (ip), vehicle: other): 93 % of control | T/C (dose: 100.0 mg/kg/injection, schedule: Q04DX003 (ip), vehicle: other): 94 % of control | T/C (dose: 200.0 mg/kg/injection, schedule: Q01DX001 (ip), vehicle: other): 90 % of control | T/C (dose: 200.0 mg/kg/injection, schedule: Q04DX003 (ip), vehicle: other): 94 % of control | T/C (dose: 400.0 mg/kg/injection, schedule: Q04DX003 (ip), vehicle: other): 98 % of control

CCCCCCNC(=O)Nc1ccccc1Cl
T/C [4]: 97 % of control | T/C [5]: 100 % of control | T/C [6]: 105 % of control

CN(N=O)C(=O)Nc1ccc(C(=O)O)cc1
T/C (dose: 12.0 mg/kg/injection, schedule: Q01DX Z (ip), vehicle: carboxymethylcellulose (CMC)): 183 % of control | T/C (dose: 17.6 mg/kg/injection, schedule: Q01DX Z (ip), vehicle: carboxymethylcellulose (CMC)): 190 % of control | T/C (dose: 26.4 mg/kg/injection, schedule: Q01DX Z (ip), vehicle: carboxymethylcellulose (CMC)): 209 % of control | T/C (dose: 40.0 mg/kg/injection, schedule: Q01DX Z (ip), vehicle: carboxymethylcellulose (CMC)): 188 % of control and 218 % of control | T/C (dose: 60.0 mg/kg/injection, schedule: Q01DX Z (ip), vehicle: carboxymethylcellulose (CMC)): 118 % of control and 87 % of control | T/C (dose: 80.0 mg/kg/injection, schedule: Q01DX Z (ip), vehicle: carboxymethylcellulose (CMC)): 98 % of control
